We go through six compounds from ChEMBL document CHEMBL5331117, “X-Ray Conformation and Structure-Activity Relationships of MA026, a Reversible Tight Junction Opener” (J Med Chem, 2023).

In the first experiment the test system is MDCK-II. Nature of the experiment: Induction of claudin-1 mediated tight junction opening in MDCK-II cells assessed as increase in FITC-conjugated dextran incubated for 5 hrs relative to control. Details: concentration or dose not given beside the values. The note with it: Canis lupus familiaris. The class given is cell-based.
Regarding `CCCCCCC[C@@H](O)CC(=O)N[C@@H](CC(C)C)C(=O)N[C@H](CCC(=O)O)C(=O)N[C@H](CCC(N)=O)C(=O)N[C@@H](C(=O)N[C@H](CC(C)C)C(=O)N[C@@H](CCC(N)=O)C(=O)N[C@@H]1COC(=O)[C@H](C)NC(=O)[C@@H](CCC(N)=O)NC(=O)[C@H](CC(C)C)NC(=O)[C@H](CC(C)C)NC(=O)[C@@H](CCC(N)=O)NC(=O)[C@@H](CC(C)C)NC(=O)[C@@H](C(C)C)NC1=O)C(C)C`, the Activity was 0.2%.

Regarding `CCCCCCC[C@@H](O)CC(=O)N[C@@H](CC(C)C)C(=O)N[C@H](C)C(=O)N[C@H](CCC(N)=O)C(=O)N[C@@H](C(=O)N[C@H](CC(C)C)C(=O)N[C@@H](CCC(N)=O)C(=O)N[C@@H]1COC(=O)[C@H]([C@@H](C)CC)NC(=O)[C@@H](CCC(N)=O)NC(=O)[C@H](CC(C)C)NC(=O)[C@H](CC(C)C)NC(=O)[C@@H](CCC(N)=O)NC(=O)[C@@H](CC(C)C)NC(=O)[C@@H](C(C)C)NC1=O)C(C)C`, the Activity is 30.7%.

As to `CCCCCCCCCC(=O)N[C@@H](CC(C)C)C(=O)N[C@H](CCC(=O)O)C(=O)N[C@H](CCC(N)=O)C(=O)N[C@@H](C(=O)N[C@H](CC(C)C)C(=O)N[C@@H](CCC(N)=O)C(=O)N[C@@H]1COC(=O)[C@H]([C@@H](C)CC)NC(=O)[C@@H](CCC(N)=O)NC(=O)[C@H](CC(C)C)NC(=O)[C@H](CC(C)C)NC(=O)[C@@H](CCC(N)=O)NC(=O)[C@@H](CC(C)C)NC(=O)[C@H](C(C)C)NC1=O)C(C)C`, the Activity came out at 0.4%.

Regarding `CCCCCCCCCC(=O)N[C@@H](CC(C)C)C(=O)N[C@H](CCC(=O)O)C(=O)N[C@H](CCC(N)=O)C(=O)N[C@@H](C(=O)N[C@H](CC(C)C)C(=O)N[C@@H](CCC(N)=O)C(=O)N[C@@H]1COC(=O)[C@H]([C@@H](C)CC)NC(=O)[C@@H](CCC(N)=O)NC(=O)[C@H](CC(C)C)NC(=O)[C@@H](CC(C)C)NC(=O)[C@@H](CCC(N)=O)NC(=O)[C@@H](CC(C)C)NC(=O)[C@@H](C(C)C)NC1=O)C(C)C`, the Activity is -2%.

The same experiment, now with this note: Canis lupus familiaris, filed as opener.
`CCCCCCCCCC(=O)N[C@@H](CC(C)C)C(=O)N[C@H](CCC(=O)O)C(=O)N[C@H](CCC(N)=O)C(=O)N[C@@H](C(=O)N[C@H](CC(C)C)C(=O)N[C@@H](CCC(N)=O)C(=O)N[C@@H]1COC(=O)[C@H]([C@@H](C)CC)NC(=O)[C@@H](CCC(N)=O)NC(=O)[C@H](CC(C)C)NC(=O)[C@H](CC(C)C)NC(=O)[C@H](CCC(N)=O)NC(=O)[C@@H](CC(C)C)NC(=O)[C@@H](C(C)C)NC1=O)C(C)C`: the Activity came out at 47.6%.

As to `CCCCCCCCCC(=O)N[C@H](CC(C)C)C(=O)N[C@H](CCC(=O)O)C(=O)N[C@H](CCC(N)=O)C(=O)N[C@@H](C(=O)N[C@H](CC(C)C)C(=O)N[C@@H](CCC(N)=O)C(=O)N[C@@H]1COC(=O)[C@H]([C@@H](C)CC)NC(=O)[C@@H](CCC(N)=O)NC(=O)[C@H](CC(C)C)NC(=O)[C@H](CC(C)C)NC(=O)[C@@H](CCC(N)=O)NC(=O)[C@@H](CC(C)C)NC(=O)[C@@H](C(C)C)NC1=O)C(C)C`, the Activity amounted to 56.8%.
